Values joined by “and” are separate entries in the source; they are usually repeats but may differ in a detail not shown here. Identical values can stand only once. Like-named read-outs stand apart in the source and are kept apart here.
Columns and labels:
Plasmodium falciparum = assay: Anti-protozoan data: P. falcip. IC50; type: cell-based; details: read-out: P. falcip. IC50
Trypanosoma cruzi = assay: Anti-protozoan data: T. cruzi IC50; type: cell-based; details: read-out: T. cruzi IC50
[1] = system: Mycobacterium tuberculosis; assay: Compounds tested against Mycobacterium tuberculosis (MIC90); type: cell-based
[2] = system: L. donovani axenic amastigotes; assay: In vitro anti-leishmania activity (IC50 vs. L. donovani axenic amastigotes); type: cell-based; details: Leishmania donovani
[3] = system: Trypanosoma brucei rhodesiense; assay: Anti-protozoan data: T.b.r. IC50; type: cell-based; details: read-out: T.b.r. IC50
Candida albicans = assay: Anti-fungal data: Candida albicans; type: cell-based; details: for MFC / MIC80: strain A39; for MIC: strain A39, read-out: Candida albicans (A39) MIC100
Aspergillus fumigatus = assay: Anti-fungal data: Aspergillus fumigatus; type: cell-based; details: for MFC / MIC80: strain DUMC 168.95; for MIC: strain DUMC 168.95, read-out: Aspergillus. Fumigatus (DUMC 168.95) MIC100
DNA = DNA binding ΔTm
Cryptococcus neoformans = assay: Anti-fungal data: Cryptococcus neoformans; type: cell-based
[4] = Table VII(b), read-out: M. tb MIC90
[5] = axenic amastigotes, Tables I-V, read-out: IC50 vs. L. donovani
[6] = Tables VI(a), VI(c), read-out: Leishmania donovani IC50

Structure (SMILES) | IC50 (in vitro) | IC50 [2, 5] | MIC80 (Candida albicans) | MIC (Candida albicans) | IC50 (Plasmodium falciparum; Tables VI(a), VI(c)) | MIC80 (Aspergillus fumigatus) | MIC (Aspergillus fumigatus) | IC50 (Trypanosoma cruzi; Tables VI(a), VI(c)) | melting point | MIC90 ([1]; read-out: M. tb. MIC90) | IC50 [2, 6] | IC50 ([3]; Tables VI(a), VI(c)) | also measured
N=C(N)c1cccc(-c2cc3cc(C(=N)N)ccc3o2)c1 [Compound 166, 2-(3-carbamimidoylphenyl)benzofuran-5-carboxamidine] | 21.2 µM | 5.82 ± 0.06 µM | – | – | – | – | – | – | – | – | – | – | IC50 (Plasmodium falciparum): 0.0191 µM; IC50 (Trypanosoma cruzi): 23.4 µM; MIC90 [1, 4]: 11.9 µg/mL and 31.6 µM; IC50 ([2]; read-out: L. Donovani IC50): 5.82 ± 0.06 µM; IC50 [3]: 0.0241 µM
Cl.Cl.c1cc(C2=NCCN2)ccc1OCCCCCOc1ccc(-c2cc3cc(C4=NCCN4)ccc3o2)cc1 [Compound 52, 2-(2-(4-(5-(4-(4,5-Dihydro-1H-imidazol-2-yl)phenoxy)pentyloxy)phenyl)benzofuran-5-yl)-4,5-dihydro-1H-imidazole dihydrochloride] | 0.87 µM | – | 10 µg/mL | 10 µg/mL | 0.06 µM | 10 µg/mL | 100 µg/mL | 2.27 µM | 258 to 261 °C | 10.1 µg/mL and 16.9 µM | 39.4 ± 7.35 µM | 0.338 µM | MFC (Candida albicans): 10 µg/mL; MFC (Aspergillus fumigatus): > 100 µg/mL
CC(C)NC(=N)c1ccc(OCCCCOc2ccc(-c3cc4cc(C(=N)NC(C)C)ccc4o3)cc2)cc1.Cl.Cl [Compound 48, 2-(4-(4-(4-(N-Isopropylcarbamimidoyl)phenoxy)butoxy)phenyl)-N-isopropylbenzofuran-5-carboxamidine dihydrochloride] | 6.92 µM | – | 100 µg/mL | 100 µg/mL | 0.302 µM | 10 µg/mL | 100 µg/mL | 21 µM | 305 °C | 59.4 µg/mL and 95.6 µM | 2.97 ± 0.16 µM | 1.11 µM | MFC (Candida albicans): 100 µg/mL; MFC (Aspergillus fumigatus): > 100 µg/mL; DNA binding Δ Tm (DNA; Tables VI(a), VI(c)): 13.3
c1cc(C2=NCCN2)cc(-c2cc3cc(C4=NCCN4)ccc3o2)c1 [Compound 168, 2-(3-(5-(4,5-dihydro-1H-imidazol-2-yl)benzofuran-2-yl)phenyl)-4,5-dihydro-1H-imidazole] | 33.9 µM | 23.7 ± 0.17 µM | – | – | – | – | – | – | – | – | – | – | IC50 (Plasmodium falciparum): 0.0758 µM; IC50 (Trypanosoma cruzi): 39.6 µM; MIC90 [1, 4]: 10.8 µg/mL and 25.7 µM; IC50 ([2]; read-out: L. Donovani IC50): 23.7 ± 0.17 µM; IC50 [3]: 0.0776 µM
Cl.Cl.N=C(N)c1ccc(OCCCOc2cccc(-c3cc4ccc(C(=N)N)cc4o3)c2)cc1 [Compound 56, 2-(3-(3-(4-Carbamimidoylphenoxy)propoxy)phenyl)benzofuran-6-carboxamidine dihydrochloride] | 19.8 µM | 11.2 ± 0.28 µM | – | – | 0.084 µM | – | – | 11.1 µM | 196 to 200 °C | 1.02 µg/mL and 1.93 µM | 11.2 ± 0.28 µM | 0.327 µM | –
CC(C)NC(=N)c1ccc(OCCCOc2ccc(-c3cc4cc(C(=N)NC(C)C)ccc4o3)cc2)cc1.Cl.Cl [Compound 45, 2-(4-(3-(4-(N-Isopropylcarbamimidoyl)phenoxy)propoxy)phenyl)-N-isopropylbenzofuran-5-carboxamidine dihydrochloride] | 45.6 µM | – | 10 µg/mL | 10 µg/mL | 0.0418 µM | 100 µg/mL | > 100 µg/mL | 70.4 µM | 301 to 302 °C | 1.12 µg/mL and 1.86 µM | 1.56 ± 0.58 µM | 0.0409 µM | MFC (Candida albicans): 10 µg/mL
CONC(=N)c1ccc2oc(CCCCCc3cc4cc(C(=N)NOC)ccc4o3)cc2c1 [Compound 193, 2-(5-(5-(N-Methoxycarbamimidoyl)benzofuran-2-yl)pentyl)-N-methoxybenzofuran-5-carboxamidine] | 35.6 µM | – | – | – | > 1.86 µM | – | – | 19.1 µM | – | 4.25 µg/mL and 7.88 µM | > 100 µM | > 18.6 µM | –
N=C(NO)c1ccc(-c2cc3cc(C(=N)NO)ccc3o2)cc1 [Compound 178, 2-(4-(N-Hydroxycarbamimidoyl)phenyl)-N-hydroxybenzofuran-5-carboxamidine] | > 235 µM | – | – | – | – | – | – | – | – | – | – | – | IC50 (Plasmodium falciparum): 0.783 µM; IC50 (Trypanosoma cruzi): > 235 µM; DNA binding Δ Tm (DNA): 4.50; MIC90 [1, 4]: > 128 µM; IC50 ([2]; read-out: L. Donovani IC50): > 100 µM; IC50 [3]: 23.6 µM
CC(C)NC(=N)c1cccc(-c2cc3cc(C(=N)NC(C)C)ccc3o2)c1 [Compound 167, 2-(3-(N-isopropylcarbamimidoyl)phenyl)-N-isopropylbenzofuran-5-carboxamidine] | > 199 µM | 13.4 ± 0.64 µM | – | – | – | – | – | – | – | – | – | – | IC50 (Plasmodium falciparum): 0.331 µM; IC50 (Trypanosoma cruzi): > 199 µM; MIC90 [1, 4]: > 57.8 µg/mL and > 128 µM; IC50 ([2]; read-out: L. Donovani IC50): 13.4 ± 0.64 µM; IC50 [3]: 0.473 µM
Cl.Cl.c1cc(OCCCCCCOc2ccc(C3=NCCN3)cc2)cc(-c2cc3ccc(C4=NCCN4)cc3o2)c1 [Compound 67, 2-(2-(3-(6-(4-(4,5-Dihydro-1H-imidazol-2-yl)phenoxy)hexyloxy)phenyl)benzofuran-6-yl)-4,5-dihydro-1H-imidazole dihydrochloride] | 1.79 µM | 43.5 ± 0.69 µM | 1.56 µg/mL | 1.56 µg/mL | 0.0412 µM | 12.5 µg/mL | 12.5 µg/mL | 3.67 µM | 182 to 186 °C | 18 µg/mL and 29.4 µM | 43.5 ± 0.69 µM | 0.681 µM | MFC (Candida albicans): 1.56 µg/mL; MFC (Cryptococcus neoformans; strain H99): 1.56 µg/mL; MIC80 (Cryptococcus neoformans; strain H99): 0.781 µg/mL; MIC (Cryptococcus neoformans; strain H99, read-out: Cryptococcus neoformans (H99) MIC100): 1.56 µg/mL; MFC (Aspergillus fumigatus): > 100 µg/mL
N=C(NO)c1ccc(OCCCOc2ccc(-c3cc4cc(C(=N)NO)ccc4o3)cc2)cc1 [Compound 182, 2-(4-(3-(4-(N-Hydroxycarbamimidoyl)phenoxy)propoxy)phenyl)-N-hydroxybenzofuran-5-carboxamidine] | 2.64 µM | – | – | – | 1.4 µM | – | – | 1.7 µM | – | 0.65 µg/mL and 1.2 µM | 5.02 ± 0.93 µM | 1.34 µM | DNA binding Δ Tm (DNA; Tables VI(a), VI(c)): 1.10
Cl.Cl.c1cc(C2=NCCN2)ccc1OCCCCCCOc1ccc(-c2cc3ccc(C4=NCCN4)cc3o2)cc1 [Compound 79, 2-(2-(4-(6-(4-(4,5-Dihydro-1H-imidazol-2-yl)phenoxy)hexyloxy)phenyl)benzofuran-6-yl)-4,5-dihydro-1H-imidazole dihydrochloride] | 3.44 µM | 15.3 ± 1.72 µM | – | – | 0.0316 µM | – | – | 2.15 µM | 265 to 269 °C | 2.14 µg/mL and 3.51 µM | 15.3 ± 1.72 µM | 0.224 µM | –
Cl.Cl.c1cc(C2=NCCN2)ccc1OCCCCOc1ccc(-c2cc3cc(C4=NCCN4)ccc3o2)cc1 [Compound 49, 2-(2-(4-(4-(4-(4,5-Dihydro-1H-imidazol-2-yl)phenoxy)butoxy)phenyl)benzofuran-5-yl) -4,5-dihydro-1H-imidazole dihydrochloride] | 2.88 µM | 9.21 ± 2.25 µM | 100 µg/mL | > 100 µg/mL | 0.0641 µM | 100 µg/mL | > 100 µg/mL | 4.51 µM | 291 to 293 °C | – | 9.21 ± 2.25 µM | 0.374 µM | DNA binding Δ Tm (DNA; Tables VI(a), VI(c)): 18.8
Cl.Cl.c1cc(OCCCCCOc2ccc(C3=NCCN3)cc2)cc(-c2cc3ccc(C4=NCCN4)cc3o2)c1 [Compound 64, 2-(2-(3-(5-(4-(4,5-Dihydro-1H-imidazol-2-yl)phenoxy)pentyloxy)phenyl)benzofuran-6-yl) -4,5-dihydro-1H-imidazole dihydrochloride] | 3.7 µM | 16.5 ± 3.45 µM | – | – | 0.0469 µM | – | – | 3.62 µM | 188 to 190 °C | – | 16.5 ± 3.45 µM | 0.442 µM | –
Cl.Cl.c1cc(C2=NCCN2)ccc1OCCCOc1ccc(-c2cc3cc(C4=NCCN4)ccc3o2)cc1 [Compound 46, 2-(2-(4-(3-(4-(4,5-Dihydro-1H-imidazol-2-yl)phenoxy)propoxy)phenyl)benzofuran-5-yl)-4,5-dihydro-1H-imidazole dihydrochloride] | 10.3 µM | – | 10 µg/mL | 10 µg/mL | 0.0432 µM | 10 µg/mL | > 100 µg/mL | 7.6 µM | 262 to 263 °C | – | – | 0.0606 µM | MFC (Candida albicans): 10 µg/mL
CC(C)NC(=N)c1ccc(OCCCCCCOc2ccc(-c3cc4cc(C(=N)NC(C)C)ccc4o3)cc2)cc1.Cl.Cl [Compound 54, 2-(4-(6-(4-(N-Isopropylcarbamimidoyl)phenoxy)hexyloxy)phenyl)-N-isopropylbenzofuran-5-carboxamidine dihydrochloride] | 0.85 µM | – | > 100 µg/mL | > 100 µg/mL | 0.0634 µM | > 100 µg/mL | > 100 µg/mL | 1.21 µM | 288 to 291 °C | 65.8 µg/mL and 102 µM | 5.4 ± 1.46 µM | 0.211 µM | –
CC(C)NC(=N)c1ccc(OCCCCOc2ccc(-c3cc4ccc(C(=N)NC(C)C)cc4o3)cc2)cc1.Cl.Cl [Compound 72, 2-(4-(4-(4-(N-Isopropylcarbamimidoyl)phenoxy)butoxy)phenyl)-N-isopropylbenzofuran-6-carboxamidine dihydrochloride] | 15.9 µM | 4.52 ± 1.81 µM | – | – | 0.139 µM | – | – | 12.5 µM | 280 to 283 °C | – | 4.52 ± 1.81 µM | 1.75 µM | –
